Results reported in US20050164370A1 (priority 2003, published 2005).

How the values were obtained:
[1] = tested on: transformed cells TM182-CRE1-CYC1IPT4; conditions: TM182-CRE1-CYC1IPT4, DOHLU+Glu agar containing 10 μM trans-zeatin, 30° C. for 30 hours
Procedure: (§1) After incubation, the growth state of the transformed cells was observed and photographed by a digital camera.

[2] = tested on: transformed cells TM182-CYC1-ADHIPT5; conditions: TM182-CYC1-ADHIPT5, DOHLU+Glu agar containing 10 μM trans-zeatin, 30° C. for 30 hours
Procedure: as §1

[3] = tested on: transformed cells TM182-AHK2-ADHIPT4; conditions: TM182-AHK2-ADHIPT4, DOHLU+Glu agar containing 10 μM trans-zeatin, 30° C. for 30 hours
Procedure: as §1

[4] = tested on: transformed cells TM182-CYC1-CYC1IPT5; conditions: TM182-CYC1-CYC1IPT5, DOHLU+Glu agar containing 10 μM trans-zeatin, 30° C. for 30 hours
Procedure: as §1

[5] = tested on: transformed cells TM182-CYC1-CYC1IPT4; conditions: TM182-CYC1-CYC1IPT4, DOHLU+Glu agar containing 10 μM trans-zeatin, 30° C. for 30 hours
Procedure: as §1

[6] = tested on: transformed cells TM182-AHK2-CYC1IPT5; conditions: TM182-AHK2-CYC1IPT5, DOHLU+Glu agar containing 10 μM trans-zeatin, 30° C. for 30 hours
Procedure: as §1

[7] = tested on: transformed cells TM182-CYC1-ADHIPT4; conditions: TM182-CYC1-ADHIPT4, DOHLU+Glu agar containing 10 μM trans-zeatin, 30° C. for 30 hours
Procedure: as §1

[8] = tested on: transformed cells TM182-AHK2-CYC1IPT4; conditions: TM182-AHK2-CYC1IPT4, DOHLU+Glu agar containing 10 μM trans-zeatin, 30° C. for 30 hours
Procedure: as §1

cytokinin receptor AHK3 = target: T1, cytokinin receptor AHK3 (Arabidopsis thaliana, UniProt Q9C5U1); conditions: TM182-AHK3, DOLU+Glu agar, 10 μM, 30° C. for 30 hours
T1 sequence (Q9C5U1 1-1036): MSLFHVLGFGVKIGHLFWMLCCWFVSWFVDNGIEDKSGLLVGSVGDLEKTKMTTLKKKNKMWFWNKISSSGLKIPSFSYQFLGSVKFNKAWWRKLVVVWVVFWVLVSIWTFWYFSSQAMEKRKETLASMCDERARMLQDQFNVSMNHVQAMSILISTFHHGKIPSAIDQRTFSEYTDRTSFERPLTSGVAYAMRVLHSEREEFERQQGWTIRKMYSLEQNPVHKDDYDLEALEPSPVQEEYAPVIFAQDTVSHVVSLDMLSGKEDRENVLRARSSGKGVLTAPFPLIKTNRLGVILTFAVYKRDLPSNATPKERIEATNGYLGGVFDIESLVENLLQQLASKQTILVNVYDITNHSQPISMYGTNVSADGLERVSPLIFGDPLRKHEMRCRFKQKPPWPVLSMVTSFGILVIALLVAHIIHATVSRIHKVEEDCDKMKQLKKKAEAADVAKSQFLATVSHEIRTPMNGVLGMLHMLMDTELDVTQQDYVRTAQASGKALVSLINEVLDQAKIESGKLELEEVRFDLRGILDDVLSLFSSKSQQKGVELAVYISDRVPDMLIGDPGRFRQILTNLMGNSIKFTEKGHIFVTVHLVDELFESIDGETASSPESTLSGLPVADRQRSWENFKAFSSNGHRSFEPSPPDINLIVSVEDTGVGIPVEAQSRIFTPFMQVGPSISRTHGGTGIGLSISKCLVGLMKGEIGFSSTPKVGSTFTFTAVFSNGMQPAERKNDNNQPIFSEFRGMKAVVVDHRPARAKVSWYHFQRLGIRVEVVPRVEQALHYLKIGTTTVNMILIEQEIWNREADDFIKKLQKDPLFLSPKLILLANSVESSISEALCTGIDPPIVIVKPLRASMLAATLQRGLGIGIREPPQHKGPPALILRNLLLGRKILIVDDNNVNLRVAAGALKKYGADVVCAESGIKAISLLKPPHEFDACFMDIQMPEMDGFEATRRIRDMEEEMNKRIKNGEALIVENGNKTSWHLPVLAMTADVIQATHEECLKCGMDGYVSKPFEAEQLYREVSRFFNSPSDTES
Procedure: A culture solution 10 μl (about 800 clones of yeast) of the transformed cells TM182-CRE1, TM182-AHK2, TM182-AHK2Δ and TM182-AHK3 produced by the example 12 was spotted on DOLU+Glu agar media containing 10 μM of trans-zeatin and cultured at 30° C. for 30 hours. After incubation, the growth state of the transformed cells was observed and photographed by a digital camera.

C/C(=C\CNc1ncnc2nc[nH]c12)CO [trans-zeatin]
growth state of the transformed cells [1]: observed to grow | growth state of the transformed cells [2]: not observed to grow | growth state of the transformed cells [3]: observed to grow | growth state of the transformed cells [4]: not observed to grow | growth state of the transformed cells [5]: not observed to grow | growth state of the transformed cells [6]: observed to grow | growth state of the transformed cells [7]: not observed to grow | growth state of the transformed cells [8]: observed to grow | growth state of the transformed cells as compared with media containing no trans-zeatin (cytokinin receptor AHK3): high growth
